Source: patent US20250236627A1, “CERTAIN OCTAHYDROFURO[3,4- B]PYRAZINES AS GLP-1 RECEPTOR MODULATORS” (ASTRAZENECA AB, priority 2021, published 2025)

What was measured:
[1] = biological target: T1, human phosphodiesterase-3A (Homo sapiens, UniProt Q14432); experiment: PDE3 Assay; format: biochemical; details: human recombinant enzyme expressed in Sf9 cells; formation of 5′AMP from cAMP
T1 construct: host or cells: Sf9 cells
Description: Evaluation of the effects of compounds on the activity of the human phosphodiesterase-3A is quantified by measuring the formation of 5′AMP from cAMP using a human recombinant enzyme expressed in Sf9 cells.
The test compound, reference compound or water (control) are added to a buffer containing 40 mM Tris/HCl (pH 7.4) and 8 mM MgCl2, 450 nM cAMP and 0.25 μCi [^3H]cAMP.
Thereafter, the reaction is initiated by addition of the enzyme (about 1 U) and the mixture is incubated for 20 min at 22° C.
For basal control measurements, the enzyme is omitted from the reaction mixture.
Following incubation SPA beads are added. After 30 min at 22° C. under shaking, the amount of [^3H]5′AMP is quantified with a scintillation counter (Topcount, Packard).
The results are expressed as a percent inhibition of the control enzyme activity. The standard inhibitory reference compound is milrinone (CAS number 78415-72-2), which is tested in each experiment at several concentrations to obtain an inhibition curve from which its IC50 value is calculated.

[2] = biological target: T2, endogenous human glucagon-like peptide 1 receptor (GLP-1R) (Homo sapiens, UniProt P43220); experiment: EndoC cAMP Accumulation Assay; format: cell-based; details: EndoC-βH1 human pancreatic β cell line; HTRF cAMP assay
T2 construct: endogenous human glucagon-like peptide 1 receptor (GLP-1R) in a pancreatic insulinoma cell line; host or cells: EndoC-βH1 human pancreatic β cell line
T2 sequence (P43220 24-463): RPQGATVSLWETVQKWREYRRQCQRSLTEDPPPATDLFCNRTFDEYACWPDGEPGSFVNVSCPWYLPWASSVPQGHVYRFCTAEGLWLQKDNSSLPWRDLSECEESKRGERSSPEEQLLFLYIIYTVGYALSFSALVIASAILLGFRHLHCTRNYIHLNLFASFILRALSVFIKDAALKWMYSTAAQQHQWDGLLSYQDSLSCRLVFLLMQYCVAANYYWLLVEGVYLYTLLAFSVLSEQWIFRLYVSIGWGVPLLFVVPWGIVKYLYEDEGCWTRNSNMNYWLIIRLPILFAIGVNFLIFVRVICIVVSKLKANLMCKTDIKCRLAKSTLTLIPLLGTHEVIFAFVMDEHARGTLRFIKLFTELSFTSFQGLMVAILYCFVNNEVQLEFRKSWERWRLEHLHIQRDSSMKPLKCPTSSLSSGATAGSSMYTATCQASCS
Summary of the method: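 Thawed EndoC-βH1 cells (3000 per well) were stimulated for 30 min at room temperature in HBSS/25 mM HEPES pH 7.4, 0.1% BSA and 0.5 mM IBMX. cAMP was measured by HTRF competitive immunoassay after 1 h. Responses were fitted by 4-parameter logistic as % activation relative to maximal GIP (82.5 nM), with basal cAMP as zero.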

human GLP-1R receptor = biological target: T3, human GLP-1R receptor (Homo sapiens, UniProt P43220, L260F); experiment: CHOK1 GLP-1R cAMP Assay; format: cell-based; details: CHO-K1 cell line stably expressing human GLP-1R; HTRF cAMP detection
T3 construct: expressed in transfected cells; host or cells: CHO-K1 (ATCC CCL-61)
T3 sequence (P43220 24-463 L260F): as the sequence (P43220 24-463) above, with L237F counted along it
Summary of the method: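 CHO-K1 cells, 800/well, stimulated 20 min at room temperature with compound in HEPES pH 7.4/HBSS/0.1% BSA plus IBMX (1 mM in the added buffer). cAMP measured by HTRF competitive immunoassay after ≥1 h, converted to pM via standard curve. EC50 from 4-parameter logistic fit; % effect relative to saturating GLP1(7-36)NH2.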

T1 sequence (Q14432 whole entry): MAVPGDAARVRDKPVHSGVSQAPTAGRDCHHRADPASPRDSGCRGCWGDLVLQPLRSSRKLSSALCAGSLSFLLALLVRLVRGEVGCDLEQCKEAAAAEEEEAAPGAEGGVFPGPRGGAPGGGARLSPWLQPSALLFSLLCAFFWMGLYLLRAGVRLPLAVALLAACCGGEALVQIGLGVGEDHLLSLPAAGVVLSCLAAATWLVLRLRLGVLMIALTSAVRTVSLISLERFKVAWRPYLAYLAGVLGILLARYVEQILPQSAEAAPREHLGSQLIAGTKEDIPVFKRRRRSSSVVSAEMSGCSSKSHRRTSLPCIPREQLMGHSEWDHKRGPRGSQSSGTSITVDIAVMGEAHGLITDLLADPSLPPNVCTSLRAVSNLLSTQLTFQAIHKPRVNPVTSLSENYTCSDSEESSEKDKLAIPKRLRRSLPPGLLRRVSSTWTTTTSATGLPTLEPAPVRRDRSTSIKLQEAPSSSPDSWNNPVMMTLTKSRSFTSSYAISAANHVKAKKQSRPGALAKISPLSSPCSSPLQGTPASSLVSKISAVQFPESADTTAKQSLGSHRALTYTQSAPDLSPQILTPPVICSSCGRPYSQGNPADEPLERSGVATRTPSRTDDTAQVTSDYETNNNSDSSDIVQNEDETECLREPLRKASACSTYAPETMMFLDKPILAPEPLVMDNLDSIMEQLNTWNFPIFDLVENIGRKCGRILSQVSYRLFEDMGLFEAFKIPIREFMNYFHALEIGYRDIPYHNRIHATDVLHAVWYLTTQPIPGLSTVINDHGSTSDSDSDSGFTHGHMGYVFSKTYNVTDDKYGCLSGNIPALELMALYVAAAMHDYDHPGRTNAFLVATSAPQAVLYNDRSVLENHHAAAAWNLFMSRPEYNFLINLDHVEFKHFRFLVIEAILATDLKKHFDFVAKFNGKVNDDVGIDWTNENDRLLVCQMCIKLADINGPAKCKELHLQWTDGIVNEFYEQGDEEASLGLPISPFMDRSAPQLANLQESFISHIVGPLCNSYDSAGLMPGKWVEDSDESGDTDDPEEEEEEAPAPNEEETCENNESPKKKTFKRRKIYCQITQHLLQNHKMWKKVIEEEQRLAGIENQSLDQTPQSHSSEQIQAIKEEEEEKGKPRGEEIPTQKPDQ

`COc1cc(C(=O)O)cc2c1nc(CN1CCN(c3cccc4c3O[C@@](C)(c3ccc(Cl)cn3)O4)[C@@H]3COC[C@@H]31)n2C[C@@H]1CCO1` (relative stereo) [Example 1b, 2-((4aR*,7aS*)-4-((R*)-2-(5-Chloropyridin-2-yl)-2-methylbenzo[d][1,3]dioxol-4-yl)hexahydrofuro[3,4-b]pyrazin-1(2H)-yl)methyl)-4-methoxy-1-(((S)-oxetan-2-yl)methyl)-1H-benzo[d]imidazole-6-carboxylic acid] gave an IC50 [1] of over 100000 nM, an EC50 [2] of 3.1 nM and an EC50 (human GLP-1R receptor) of 1.8 nM.

With `COc1cc(C(=O)O)cc2c1nc(CN1CCN(c3cccc4c3O[C@@](C)(c3ccc(Cl)cn3)O4)[C@@H]3COC[C@@H]31)n2C[C@@H]1CCCO1` (relative stereo) [Example 2a, 2-((4aR*,7aS*)-4-((R*)-2-(5-Chloropyridin-2-yl)-2-methylbenzo[d][1,3]dioxol-4-yl)hexahydrofuro[3,4-b]pyrazin-1(2H)-yl)methyl)-4-methoxy-1-(((S)-tetrahydrofuran-2-yl)methyl)-1H-benzo[d]imidazole-6-carboxylic acid] the IC50 [1] was over 100000 nM, the EC50 [2] was 3.1 nM and the EC50 (human GLP-1R receptor) was 3.8 nM.

`C[C@]1(c2ccc(Cl)cn2)Oc2cccc(N3CCN(Cc4nc5ccc(C(=O)O)cc5n4C[C@@H]4CCO4)[C@H]4COC[C@H]43)c2O1` (single isomer, unassigned) [Example 5b, 2-(((4aR*,7aS*)-4-((R*)-2-(5-Chloropyridin-2-yl)-2-methylbenzo[d][1,3]dioxol-4-yl)hexahydrofuro[3,4-b]pyrazin-1(2H)-yl)methyl)-1-(((S)-oxetan-2-yl)methyl)-1H-benzo[d]imidazole-6-carboxylic acid] showed an IC50 [1] of over 100000 nM, an EC50 [2] of 9.5 nM and an EC50 (human GLP-1R receptor) of 2.2 nM.

In the case of `C[C@]1(c2ccc(Cl)cc2F)Oc2cccc(N3CCN(Cc4nc5c(Cl)cc(C(=O)O)cc5n4C[C@@H]4CCO4)[C@H]4COC[C@H]43)c2O1` (single isomer, unassigned) [Example 15c, 4-Chloro-2-(((4aR*,7aS*)-4-((R*)-2-(4-chloro-2-fluorophenyl)-2-methylbenzo[d][1,3]dioxol-4-yl)hexahydrofuro[3,4-b]pyrazin-1(2H)-yl)methyl)-1-(((S)-oxetan-2-yl)methyl)-1H-benzo[d]imidazole-6-carboxylic acid], the EC50 [2] is reported as 560 nM and the EC50 (human GLP-1R receptor) is reported as 150 nM.

Compound `C[C@]1(c2ccc(Cl)cc2F)Oc2cccc(N3CCN(Cc4nc5c(Cl)cc(C(=O)O)cc5n4C[C@@H]4CCO4)[C@H]4COC[C@H]43)c2O1` (single isomer, unassigned) [Example 15d, 4-Chloro-2-(((4aR*,7aS*)-4-((R*)-2-(4-chloro-2-fluorophenyl)-2-methylbenzo[d][1,3]dioxol-4-yl)hexahydrofuro[3,4-b]pyrazin-1(2H)-yl)methyl)-1-(((S)-oxetan-2-yl)methyl)-1H-benzo[d]imidazole-6-carboxylic acid] has an EC50 [2] of 160 nM and an EC50 (human GLP-1R receptor) of 190 nM.

`C[C@]1(c2ccc(Cl)cc2F)Oc2cccc(N3CCN(Cc4nc5c(F)cc(C(=O)O)cc5n4C[C@@H]4CCO4)[C@H]4COC[C@H]43)c2O1` (single isomer, unassigned) [Example 16a, 2-(((4aR*,7aS*)-4-((R*)-2-(4-Chloro-2-fluorophenyl)-2-methylbenzo[d][1,3]dioxol-4-yl)hexahydrofuro[3,4-b]pyrazin-1(2H)-yl)methyl)-4-fluoro-1-(((S)-oxetan-2-yl)methyl)-1H-benzo[d]imidazole-6-carboxylic acid] gave an EC50 [2] of 2.3 nM and an EC50 (human GLP-1R receptor) of 1.2 nM.

`C[C@]1(c2ccc(Cl)cc2F)Oc2cccc(N3CCN(Cc4nc5c(F)cc(C(=O)O)cc5n4C[C@@H]4CCO4)[C@H]4COC[C@H]43)c2O1` (single isomer, unassigned) [Example 16b, 2-(((4aR*,7aS*)-4-((R*)-2-(4-Chloro-2-fluorophenyl)-2-methylbenzo[d][1,3]dioxol-4-yl)hexahydrofuro[3,4-b]pyrazin-1(2H)-yl)methyl)-4-fluoro-1-(((S)-oxetan-2-yl)methyl)-1H-benzo[d]imidazole-6-carboxylic acid] showed an EC50 [2] of 270 nM and an EC50 (human GLP-1R receptor) of 120 nM.

For `C[C@]1(c2ccc(Cl)cc2F)Oc2cccc(N3CCN(Cc4nc5c(F)cc(C(=O)O)cc5n4C[C@@H]4CCO4)[C@H]4COC[C@H]43)c2O1` (single isomer, unassigned) [Example 16c, 2-(((4aR*,7aS*)-4-((R*)-2-(4-Chloro-2-fluorophenyl)-2-methylbenzo[d][1,3]dioxol-4-yl)hexahydrofuro[3,4-b]pyrazin-1(2H)-yl)methyl)-4-fluoro-1-(((S)-oxetan-2-yl)methyl)-1H-benzo[d]imidazole-6-carboxylic acid], the EC50 [2] was 440 nM and the EC50 (human GLP-1R receptor) was 170 nM.

Work on `C[C@]1(c2ccc(Cl)cc2F)Oc2cccc(N3CCN(Cc4nc5c(F)cc(C(=O)O)cc5n4C[C@@H]4CCO4)[C@H]4COC[C@H]43)c2O1` (single isomer, unassigned) [Example 16d, 2-(((4aR*,7aS*)-4-((R*)-2-(4-Chloro-2-fluorophenyl)-2-methylbenzo[d][1,3]dioxol-4-yl)hexahydrofuro[3,4-b]pyrazin-1(2H)-yl)methyl)-4-fluoro-1-(((S)-oxetan-2-yl)methyl)-1H-benzo[d]imidazole-6-carboxylic acid] yielded an EC50 [2] of 270 nM and an EC50 (human GLP-1R receptor) of 160 nM.

Work on `Cc1nccn1CCn1c(CN2CCN(c3cccc4c3O[C@@](C)(c3ccc(Cl)cc3F)O4)[C@@H]3COC[C@@H]32)nc2c(F)cc(C(=O)O)cc21` (single isomer, unassigned) [Example 17] yielded an EC50 [2] of 4.5 nM and an EC50 (human GLP-1R receptor) of 14 nM.

Work on `Cc1nccn1CCn1c(CN2CCN(c3cccc4c3O[C@@](C)(c3ccc(Cl)cc3F)O4)[C@@H]3COC[C@@H]32)nc2c(Cl)cc(C(=O)O)cc21` (single isomer, unassigned) [Example 18] yielded an EC50 [2] of 6.1 nM and an EC50 (human GLP-1R receptor) of 26 nM.

Compound `C[C@]1(c2ccc(Cl)cc2F)Oc2cccc(N3CCN(Cc4nc5c(Cl)cc(C(=O)O)cc5n4Cc4cocn4)[C@H]4COC[C@H]43)c2O1` (single isomer, unassigned) [Example 19] has an EC50 [2] of 7.4 nM and an EC50 (human GLP-1R receptor) of 25 nM.

For `C[C@]1(c2ccc(Cl)cc2F)Oc2cccc(N3CCN(Cc4nc5c(F)cc(C(=O)O)cc5n4Cc4cocn4)[C@H]4COC[C@H]43)c2O1` (single isomer, unassigned) [Example 20a], the EC50 [2] was 410 nM and the EC50 (human GLP-1R receptor) was 150 nM.

`C[C@]1(c2ccc(Cl)cc2F)Oc2cccc(N3CCN(Cc4nc5c(F)cc(C(=O)O)cc5n4Cc4cocn4)[C@H]4COC[C@H]43)c2O1` (single isomer, unassigned) [Example 20b] showed an EC50 [2] of 10 nM and an EC50 (human GLP-1R receptor) of 7.2 nM.

`C[C@]1(c2ccc(Cl)cn2)Oc2cccc(N3CCN(Cc4nc5c(F)cc(C(=O)O)cc5n4CC4(C#N)CC4)[C@H]4COC[C@H]43)c2O1` (single isomer, unassigned) [Example 22b] was tested, and the EC50 [2] was 240 nM and the EC50 (human GLP-1R receptor) was 170 nM.

For `C[C@]1(c2ccc(Cl)cn2)Oc2cccc(N3CCN(Cc4nc5c(F)cc(C(=O)O)cc5n4CC4(C#N)CC4)[C@H]4COC[C@H]43)c2O1` (single isomer, unassigned) [Example 22c], the EC50 [2] was 580 nM and the EC50 (human GLP-1R receptor) was 140 nM.

`C[C@]1(c2ccc(Cl)cn2)Oc2cccc(N3CCN(Cc4nc5c(Cl)cc(C(=O)O)cc5n4CC4(C#N)CC4)[C@H]4COC[C@H]43)c2O1` (single isomer, unassigned) [Example 23b] was tested, and the EC50 [2] was 190 nM and the EC50 (human GLP-1R receptor) was 77 nM.

`C[C@]1(c2ccc(Cl)cn2)Oc2cccc(N3CCN(Cc4nc5c(Cl)cc(C(=O)O)cc5n4CC4(CC#N)CC4)[C@H]4COC[C@H]43)c2O1` (single isomer, unassigned) [Example 24] was tested, and the EC50 [2] was 4.3 nM and the EC50 (human GLP-1R receptor) was 3.1 nM.

`C[C@]1(c2ccc(Cl)cn2)Oc2cccc(N3CCN(Cc4nc5ccc(C(=O)O)cc5n4CC4(C#N)CC4)[C@H]4COC[C@H]43)c2O1` (single isomer, unassigned) [Example 26] showed an EC50 [2] of 11 nM and an EC50 (human GLP-1R receptor) of 3.6 nM.

Compound `C[C@]1(c2ccc(Cl)cn2)Oc2cccc(N3CCN(Cc4nc5c(Cl)cc(C(=O)O)cc5n4CCn4cccn4)[C@H]4COC[C@H]43)c2O1` (single isomer, unassigned) [Example 27] has an EC50 [2] of 20 nM and an EC50 (human GLP-1R receptor) of 81 nM.

Work on `N#Cc1ccc(COc2cccc(C3CCN(Cc4nc5ccc(C(=O)O)cc5n4C[C@@H]4CCO4)CC3)n2)c(F)c1` [Ref Comp B, reference compound] yielded an IC50 [1] of 11000 nM.
